Measured values from PubChem BioAssay AID1259407 (Chemical Carcinogenesis Research Information System (CCRIS), 2018).
Activity calls are given as the source filed them. No rule for the calls is given here.

Test system: CCRIS mutagenicity, Ames/micronucleus/aberration tests
Experiment: CCRIS mutagenicity studies
[1] = Test System: AMES SALMONELLA TYPHIMURIUM, Strain/Indicator: TA98, Metabolic Activation: NONE, Method: PREINCUBATION
[2] = Test System: AMES SALMONELLA TYPHIMURIUM, Strain/Indicator: TA98, Metabolic Activation: RAT, LIVER, S-9, AROCLOR 1254, Method: PREINCUBATION
[3] = Test System: AMES SALMONELLA TYPHIMURIUM, Strain/Indicator: TA100, Metabolic Activation: NONE, Method: PREINCUBATION
[4] = Test System: AMES SALMONELLA TYPHIMURIUM, Strain/Indicator: TA100, Metabolic Activation: RAT, LIVER, S-9, AROCLOR 1254, Method: PREINCUBATION
[5] = Test System: AMES SALMONELLA TYPHIMURIUM, Strain/Indicator: TA1537, Metabolic Activation: NONE, Method: PREINCUBATION
[6] = Test System: AMES SALMONELLA TYPHIMURIUM, Strain/Indicator: TA1537, Metabolic Activation: RAT, LIVER, S-9, AROCLOR 1254, Method: PREINCUBATION
[7] = Test System: MOUSE LYMPHOMA, Strain/Indicator: L5178Y (TK+/TK-), Metabolic Activation: RAT, LIVER, S-9, AROCLOR 1254, Method: SUSPENSION/PLATE
[8] = Test System: AMES SALMONELLA TYPHIMURIUM, Strain/Indicator: TA98, Metabolic Activation: NONE, Method: STANDARD PLATE
[9] = Test System: AMES SALMONELLA TYPHIMURIUM, Strain/Indicator: TA100, Metabolic Activation: NONE, Method: STANDARD PLATE

## CC1(C)S[C@@H]2[C@H](NC(=O)[C@H](N)c3ccccc3)C(=O)N2[C@H]1C(=O)O
End Point: IN VITRO CHROMOSOMAL ABERRATIONS, Test System: CHO CELLS, Metabolic Activation: NONE
  mutagenic call: inactive; negative; testing limited by solubility of chemical
End Point: IN VITRO CHROMOSOMAL ABERRATIONS, Test System: CHO CELLS, Metabolic Activation: RAT, LIVER, S-9, AROCLOR 1254
  mutagenic call: inactive; negative; testing limited by solubility of chemical
Test System: AMES SALMONELLA TYPHIMURIUM, Strain/Indicator: TA98, Metabolic Activation: HAMSTER, LIVER, S-9, AROCLOR 1254, Method: PREINCUBATION
  mutagenic call: inactive; negative
[1]
  mutagenic call: inactive; negative
[2]
  mutagenic call: inactive; negative
Test System: AMES SALMONELLA TYPHIMURIUM, Strain/Indicator: TA100, Metabolic Activation: HAMSTER, LIVER, S-9, AROCLOR 1254, Method: PREINCUBATION
  mutagenic call: inactive; negative
[3]
  mutagenic call: inactive; negative
[4]
  mutagenic call: inactive; negative
Test System: AMES SALMONELLA TYPHIMURIUM, Strain/Indicator: TA1535, Metabolic Activation: HAMSTER, LIVER, S-9, AROCLOR 1254, Method: PREINCUBATION
  mutagenic call: inactive; negative
Test System: AMES SALMONELLA TYPHIMURIUM, Strain/Indicator: TA1535, Metabolic Activation: NONE, Method: PREINCUBATION
  mutagenic call: inactive; negative
Test System: AMES SALMONELLA TYPHIMURIUM, Strain/Indicator: TA1535, Metabolic Activation: RAT, LIVER, S-9, AROCLOR 1254, Method: PREINCUBATION
  mutagenic call: inactive; negative
Test System: AMES SALMONELLA TYPHIMURIUM, Strain/Indicator: TA1537, Metabolic Activation: HAMSTER, LIVER, S-9, AROCLOR 1254, Method: PREINCUBATION
  mutagenic call: inactive; negative
[5]
  mutagenic call: inactive; negative
[6]
  mutagenic call: inactive; negative
Test System: MOUSE LYMPHOMA, Strain/Indicator: L5178Y (TK+/TK-), Metabolic Activation: NONE, Method: SUSPENSION/PLATE
  mutagenic call: inactive; negative
[7]
  mutagenic call: inactive; negative

## CCOP(=O)(OCC)Oc1cc(C)nc(C(C)C)n1
[8]
  mutagenic call: inactive; negative
Test System: AMES SALMONELLA TYPHIMURIUM, Strain/Indicator: TA98, Metabolic Activation: RAT, LIVER, S-9, Method: STANDARD PLATE
  mutagenic call: inactive; negative
[9]
  mutagenic call: active; positive
Test System: AMES SALMONELLA TYPHIMURIUM, Strain/Indicator: TA100, Metabolic Activation: RAT, LIVER, S-9, Method: STANDARD PLATE
  mutagenic call: inactive; negative

## CC1=CC(C=O)C(C=O)=C[C@@H]2CC(C)(C)C[C@H]12 (stereo partly specified)
[8]
  mutagenic call: inactive; negative
[9]
  mutagenic call: inactive; negative
Test System: AMES SALMONELLA TYPHIMURIUM, Strain/Indicator: TA2637, Metabolic Activation: NONE, Method: STANDARD PLATE
  mutagenic call: inactive; negative
Test System: CHINESE HAMSTER V-79, Strain/Indicator: V-79/6-THIOGUANINE (HGPRT), Metabolic Activation: NONE
  mutagenic call: inactive; negative

## Cc1c(O)cc2c(c1O)C(=O)c1ccccc1C2=O
[1]
  mutagenic call: inactive; negative
[2]
  mutagenic call: active; positive
Test System: AMES SALMONELLA TYPHIMURIUM, Strain/Indicator: TA98, Metabolic Activation: RAT, LIVER, S-9, PCB, Method: PREINCUBATION
  mutagenic call: active; positive
[3]
  mutagenic call: inactive; negative
[4]
  mutagenic call: active; positive
Test System: AMES SALMONELLA TYPHIMURIUM, Strain/Indicator: TA100, Metabolic Activation: RAT, LIVER, S-9, PCB, Method: PREINCUBATION
  mutagenic call: active; positive
[5]
  mutagenic call: inactive; negative
[6]
  mutagenic call: active; positive
Test System: UDS RODENT HEPATOCYTES, Strain/Indicator: THY INCORP, Metabolic Activation: NONE
  mutagenic call: active; positive

## O=[N+]([O-])c1ccc2ccc3c([N+](=O)[O-])cccc3c2c1
Test System: AMES SALMONELLA TYPHIMURIUM, Strain/Indicator: TA98(1,8-DNP6), Metabolic Activation: NONE, Method: STANDARD PLATE
  mutagenic call: active; positive
Test System: AMES SALMONELLA TYPHIMURIUM, Strain/Indicator: TA98(NR), Metabolic Activation: NONE, Method: STANDARD PLATE
  mutagenic call: active; positive
[8]
  mutagenic call: active; positive
[9]
  mutagenic call: active; positive
Test System: AMES SALMONELLA TYPHIMURIUM, Strain/Indicator: YG1021, Metabolic Activation: NONE, Method: STANDARD PLATE
  mutagenic call: active; positive
Test System: AMES SALMONELLA TYPHIMURIUM, Strain/Indicator: YG1024, Metabolic Activation: NONE, Method: STANDARD PLATE
  mutagenic call: active; positive
Test System: AMES SALMONELLA TYPHIMURIUM, Strain/Indicator: YG1026, Metabolic Activation: NONE, Method: STANDARD PLATE
  mutagenic call: active; positive
Test System: AMES SALMONELLA TYPHIMURIUM, Strain/Indicator: YG1029, Metabolic Activation: NONE, Method: STANDARD PLATE
  mutagenic call: active; positive

## Cc1cc2c3c(ccc2c2ccccc12)[C@@H](O)[C@H](O)[C@@H]1O[C@H]31
[3]
  mutagenic call: inactive; negative

## O=[N+]([O-])c1ccc2ccc3c4c(cc5ccc1c2c53)CCCC4
[8]
  mutagenic call: active; positive
[9]
  mutagenic call: inactive; negative

## CCN(Cc1cccc(S(=O)(=O)O)c1)c1ccc(C(=C2C=CC(=[N+](CC)Cc3cccc(S(=O)(=O)O)c3)C=C2)c2ccccc2S(=O)(=O)[O-])cc1
End Point: IN VIVO MICRONUCLEUS, Test System: BONE MARROW POLYCHROMATIC ERYTHROCYTES, Species: MOUSE, Strain/Sex: DDY/MALE, Route: IP
  mutagenic call: inactive; negative
Test System: AMES SALMONELLA TYPHIMURIUM, Strain/Indicator: TA98, Metabolic Activation: HAMSTER, LIVER, S-9, AROCLOR 1254, Method: STANDARD PLATE
  mutagenic call: active; positive
Test System: AMES SALMONELLA TYPHIMURIUM, Strain/Indicator: TA98, Metabolic Activation: HAMSTER, LIVER, S-9, Method: PREINCUBATION (PRIVAL METHOD)
  mutagenic call: active; positive
[1]
  mutagenic call: inactive; negative
Test System: AMES SALMONELLA TYPHIMURIUM, Strain/Indicator: TA98, Metabolic Activation: S-9, Method: PREINCUBATION
  mutagenic call: inactive; negative
Test System: AMES SALMONELLA TYPHIMURIUM, Strain/Indicator: TA100, Metabolic Activation: HAMSTER, LIVER, S-9, Method: PREINCUBATION (PRIVAL METHOD)
  mutagenic call: active; positive
[3]
  mutagenic call: inactive; negative
Test System: AMES SALMONELLA TYPHIMURIUM, Strain/Indicator: TA100, Metabolic Activation: S-9, Method: PREINCUBATION
  mutagenic call: inactive; negative
Test System: AMES SALMONELLA TYPHIMURIUM, Strain/Indicator: TA1538, Metabolic Activation: RAT, LIVER, S-9, AROCLOR 1254, HAMSTER, LIVER, S-9, AROCLOR 1254, Method: STANDARD PLATE
  mutagenic call: active; positive
[7]
  mutagenic call: active; positive. reevaluation of results: positive
Test System: Mouse lymphoma, Strain/Indicator: L5178Y (tk+/tk-), Metabolic Activation: None, Method: Suspension/plate
  mutagenic call: inactive; negative

## Cc1ccccc1OCC(O)CNCCOc1ccc(C(N)=O)cc1 (stereo unspecified)
[8]
  mutagenic call: inactive; negative
Test System: AMES SALMONELLA TYPHIMURIUM, Strain/Indicator: TA98, Metabolic Activation: RAT, LIVER, S-9, AROCLOR 1254, Method: STANDARD PLATE
  mutagenic call: inactive; negative
[9]
  mutagenic call: inactive; negative
Test System: AMES SALMONELLA TYPHIMURIUM, Strain/Indicator: TA100, Metabolic Activation: RAT, LIVER, S-9, AROCLOR 1254, Method: STANDARD PLATE
  mutagenic call: inactive; negative

## NC(=O)N(CCCO)N=O
Test System: E. COLI B, Strain/Indicator: H/R30R, Metabolic Activation: NONE
  mutagenic call: active; positive
Test System: E. COLI B, Strain/Indicator: HS30R, Metabolic Activation: NONE
  mutagenic call: active; positive
